Holding throughout (format): cell-based
One series deals with HCT^wt cells. Description: MTT cytotoxicity assay, HCT^wt (p53 pos). The settings on record: 48 h. As to the method: (§1) The synthesized compounds were tested for their ability to block the proliferation of the selected model cell lines: LNCaP (p53+), PC3 (p53-), HCT^wt (p53+), and HCT^−/− (p53-) cells. The assay was carried out using the standard MTT (3-(4,5-dimethylthiazol-2-yl)2,5-diphenyl tetrazolium bromide) assay based on the modified approach reported by Ferrari and colleagues. […] Differences in IC50 values against these cell lines were used to assess the selectivity of the compounds.
(§2) Model cell lines were purchased from the in stock collection of the N.N. Blokhin Russian Cancer Research Center (RAMS). Cells were accurately maintained in the recommended media, supplemented with 10% heat-inactivated FBS (Invitrogen) and 2 mmol/L L-glutamine (Invitrogen).
(§3) First, 4000 cells per well were plated out in 140 µL of DMEM (with 10% FBS) in 96-well plates and incubated in 5% CO2 for 24 h at 37 °C without treatment. […] The cells were treated for 48 h with […] (eight dilutions) concentrations of the substances (each in triplicate) or doxorubicin (0.3 nM–600 nM, eight dilutions) as a control substance. After the incubation, 15 µL of MTT solution in PBS (5 mg/mL) was added, and the cells were incubated for 2 h, followed by removal of the media and addition of 120 µL of DMSO. […] Cell survival rates were determined by the comparison of optical density with the corresponding untreated control cell culture. Dose-dependent curves and the corresponding IC50 values were calculated using “GraphPad Prism 6” software (GraphPad Software, Inc., San Diego, CA, USA).
(Formazan colour is commonly taken as a measure of viable cells.)

A further series concerns PC3 cells. Description: MTT cytotoxicity assay, PC3 (p53 neg). As to the method: as §1, §2, §3
A further series relates to LNCaP cells. Description: MTT cytotoxicity assay, LNCaP (p53 pos). The settings on record: 48 h. On the procedure:
as §1, §2, §3

For the next series, the system named is HCT^−/− cells. Description: MTT cytotoxicity assay, HCT^−/− (p53 neg). The settings on record: 48 h. As to the method: as §1, §2, §3

Drawing on paper PMC9919490, “Synthesis and Biological Evaluation of Novel Dispiro-Indolinones with Anticancer Activity” (Molecules, 2023), this text covers IC50 for 23 compounds.

For `CN1CC(c2ccc(Cl)cc2)C2(NC(=S)N(c3ccc(O)cc3)C2=O)C12C(=O)Nc1ccc(Br)cc12` (centres unmarked) [Compound 51, 1-(4-hydroxyphenyl)-4’-(4-chlorophenyl)-1’-methyl-5’’’-bromo-2-thiooxodispiro[imidazolidine-4,3’-pyrrolidine-2’,3”-indoline]-2”,5-dione], the 50% inhibitory concentration (IC50) in the series with HCT^wt cells, in the series on PC3 cells (48 h), in the series with LNCaP cells and in the series on HCT^−/− cells was more than 100 µM each time.

Regarding `CC(c1ccccc1)N1C(=O)C2(NC1=S)C(c1ccc(Cl)cc1)CN(C)C21C(=O)Nc2ccc(Cl)cc21` (mixture of isomers) [Compound 66], the IC50 in the series with HCT^wt cells, with PC3 cells (48 h), in the series with LNCaP cells and with HCT^−/− cells was more than 100 µM in each case.

As for `CC(c1ccccc1)N1C(=O)C2(NC1=S)C(c1ccccc1Cl)CN(C)C21C(=O)Nc2ccc(Br)cc21` (mixture of isomers) [Compound 62], the concentration for half-maximal inhibition (IC50) in the series with HCT^wt cells, with PC3 cells (48 h), in the series with LNCaP cells and with HCT^−/− cells was more than 100 µM throughout.

With `COc1ccc(N2C(=O)[C@]3(NC2=S)[C@@H](c2cccc(Cl)c2)CN(C)[C@@]32C(=O)Nc3ccccc32)cc1` (racemic) [Compound 32], the IC50 in the series on HCT^wt cells, in the series on PC3 cells (48 h), with LNCaP cells and with HCT^−/− cells was more than 100 µM each time.

For the compound `CN1C[C@H](c2ccncc2)[C@]2(NC(=S)N(c3ccccc3)C2=O)[C@]12C(=O)Nc1ccc(Br)cc12` (racemic) [Compound 20], the IC50 with HCT^wt cells, with PC3 cells (48 h), in the series on LNCaP cells and in the series with HCT^−/− cells was more than 100 µM each time.

Regarding `CCOc1ccc(N2C(=O)[C@]3(NC2=S)[C@@H](c2ccc(F)cc2)CN(C)[C@@]32C(=O)Nc3ccccc32)cc1` (racemic) [Compound 30], the IC50 in the series on HCT^wt cells, in the series with PC3 cells (48 h), in the series with LNCaP cells and in the series with HCT^−/− cells was more than 100 µM each time.

As for `CN1CC(c2ccccc2Cl)C2(NC(=S)N(c3ccc(O)cc3)C2=O)C12C(=O)Nc1ccc(Br)cc12` (centres unmarked) [Compound 54, 1-(4-hydroxyphenyl)-4’-(2-chlorophenyl)-1’-methyl-5’’’-bromo-2-thiooxodispiro[imidazolidine-4,3’-pyrrolidine-2’,3”-indoline]-2”,5-dione], the IC50 – broadly, the concentration needed to halve the response being measured – with HCT^wt cells is more than 100 µM; in the series on PC3 cells (48 h), 20 ± 8.4 µM; in the series on LNCaP cells it was 9.5 ± 2.5 µM; in the series on HCT^−/− cells it was more than 100 µM.

Consider `CN1C[C@H](c2ccccc2Cl)[C@]2(NC(=S)N(c3ccc(O)cc3)C2=O)[C@]12C(=O)Nc1ccccc12` (racemic) [Compound 53], for which the IC50 in the series with HCT^wt cells, in the series with PC3 cells (48 h), in the series on LNCaP cells and with HCT^−/− cells was more than 100 µM throughout.

With `C#CCOc1ccc([C@H]2CN(C)[C@@]3(C(=O)Nc4ccc(Br)cc43)[C@@]23NC(=S)N(c2ccc(OCC)cc2)C3=O)cc1` (racemic) [Compound 34], the IC50 in the series with HCT^wt cells, in the series on PC3 cells (48 h), with LNCaP cells and in the series with HCT^−/− cells was more than 100 µM each time.

With `CCOc1ccc(N2C(=O)[C@]3(NC2=S)[C@@H](c2ccc(F)cc2)CN(C)[C@@]32C(=O)Nc3ccc(Br)cc32)cc1` (racemic) [Compound 31], the IC50 in the series on HCT^wt cells, in the series with PC3 cells (48 h), in the series with LNCaP cells and with HCT^−/− cells was more than 100 µM in each case.

With `CCc1ccc([C@H]2CN(C)[C@@]3(C(=O)Nc4ccccc43)[C@@]23NC(=S)N(c2ccc(F)c(Cl)c2)C3=O)cc1` (racemic) [Compound 46], the IC50 in the series on HCT^wt cells was 6.3 ± 2.5 µM; in the series on PC3 cells (48 h), more than 100 µM; in the series on LNCaP cells, more than 100 µM; with HCT^−/− cells, 6.5 ± 3.6 µM.

In the case of `CN1C[C@H](c2cccc(Cl)c2)[C@]2(NC(=S)N(c3ccc(F)c(Cl)c3)C2=O)[C@]12C(=O)Nc1ccc(Cl)cc12` (racemic) [Compound 43], the IC50 with HCT^wt cells was determined as 9.3 ± 4.6 µM; with PC3 cells (48 h) it was 5.7 ± 2.6 µM; in the series with LNCaP cells, 3.2 ± 1.6 µM; with HCT^−/− cells it was 9.5 ± 4.9 µM.

As to `COc1ccc([C@H]2CN(C)[C@@]3(C(=O)Nc4ccccc43)[C@@]23NC(=S)N(c2ccc(F)c(Cl)c2)C3=O)cc1` (racemic) [Compound 41], the IC50 with HCT^wt cells, in the series on PC3 cells (48 h), with LNCaP cells and with HCT^−/− cells was more than 100 µM in each case.

Consider `CN1C[C@H](c2ccc(Cl)cc2)[C@]2(NC(=S)N(c3ccc(F)c(Cl)c3)C2=O)[C@]12C(=O)Nc1ccc(Cl)cc12` (racemic) [Compound 42], for which the IC50 in the series on HCT^wt cells, in the series with PC3 cells (48 h), with LNCaP cells and in the series with HCT^−/− cells was more than 100 µM in each case.

On to `CC(c1ccccc1)N1C(=O)C2(NC1=S)C(c1ccc(Cl)cc1)CN(C)C21C(=O)Nc2ccc(Br)cc21` (mixture of isomers) [Compound 65], for which the IC50 in the series on HCT^wt cells, with PC3 cells (48 h), in the series on LNCaP cells and in the series on HCT^−/− cells was more than 100 µM throughout.

Take `CCOc1ccc(N2C(=O)[C@]3(NC2=S)[C@@H](c2ccc(Cl)c(Cl)c2)CN(C)[C@@]32C(=O)Nc3ccccc32)cc1` (racemic) [Compound 27]: the IC50 with HCT^wt cells, in the series with PC3 cells (48 h), with LNCaP cells and in the series on HCT^−/− cells was more than 100 µM each time.

With `CN1C[C@H](c2ccccc2Br)[C@]2(NC(=S)N(c3ccccc3)C2=O)[C@]12C(=O)Nc1ccccc12` (racemic) [Compound 8], the IC50 in the series on HCT^wt cells, with PC3 cells (48 h), with LNCaP cells and with HCT^−/− cells was more than 100 µM in each case.

`CN1C[C@H](c2ccccc2Cl)[C@]2(NC(=S)N(c3ccccc3)C2=O)[C@]12C(=O)Nc1ccccc12` (racemic) [Compound 9]: the IC50 in the series with HCT^wt cells was 21.7 ± 5.8 µM; in the series with PC3 cells (48 h) it was more than 100 µM; in the series with LNCaP cells, more than 100 µM; in the series on HCT^−/− cells, 23.1 ± 6.6 µM.

`COc1ccc([C@H]2CN(C)[C@@]3(C(=O)Nc4ccc(Cl)cc43)[C@@]23NC(=S)N(c2ccc(O)cc2)C3=O)cc1OC` (racemic) [Compound 57]: the IC50 was more than 100 µM in the series on HCT^wt cells, 20 ± 6.9 µM in the series with PC3 cells (48 h), 17 ± 1 µM in the series on LNCaP cells and more than 100 µM with HCT^−/− cells.

As to `CN1C[C@H](c2cccc(Cl)c2)[C@]2(NC(=S)N(c3ccccc3)C2=O)[C@]12C(=O)Nc1ccc(Cl)cc12` (racemic) [Compound 23], the 50% inhibitory concentration (IC50) is 50.7 ± 8.9 µM with HCT^wt cells, more than 100 µM in the series with PC3 cells (48 h), more than 100 µM in the series on LNCaP cells and 50.7 ± 12.6 µM in the series on HCT^−/− cells.

In the case of `CN1C[C@H](c2ccc(F)cc2)[C@]2(NC(=S)N(c3ccc(Cl)cc3)C2=O)[C@]12C(=O)Nc1ccccc12` (racemic) [Compound 38], the 50% inhibitory concentration (IC50) with HCT^wt cells, in the series with PC3 cells (48 h), with LNCaP cells and in the series on HCT^−/− cells was more than 100 µM in each case.

Take `CN1C[C@H](c2ccncc2)[C@]2(NC(=S)N(c3ccccc3)C2=O)[C@]12C(=O)Nc1ccc(Cl)cc12` (racemic) [Compound 21]: the IC50 in the series on HCT^wt cells was 50.5 ± 10.2 µM; with PC3 cells (48 h) it was more than 100 µM; in the series on LNCaP cells, more than 100 µM; in the series on HCT^−/− cells it was more than 100 µM.

As to `C#CCOc1ccc(N2C(=O)[C@]3(NC2=S)[C@@H](c2ccc(Cl)cc2)CN(C)[C@@]32C(=O)Nc3ccccc32)cc1` [Compound 35], the IC50 is more than 100 µM in the series on HCT^wt cells; more than 100 µM in the series on PC3 cells (Homo sapiens, PC-3, 48 h); more than 100 µM with LNCaP cells (Homo sapiens, LNCaP); more than 100 µM with HCT^−/− cells.
